The source of these data is patent US6028197A, “Dibenzo[a,g]quinolizinium derivatives and the salts thereof” (Hanwha Corporation, priority 1998, dated 2000).

SMILES strings stand for the structures. Some results are limits rather than exact numbers.

In the first test the target is T1, sterol 14-reductase (Rattus norvegicus, UniProt A0ACM8Q6X4).
T1 construct: microsome which was used as an enzyme source of sterol 14-reductase; from tissue; host or cells: liver microsomes of male Sprague-Dawley rats fed lovastatin and cholestyramine
T1 sequence (A0ACM8Q6X4 1-418): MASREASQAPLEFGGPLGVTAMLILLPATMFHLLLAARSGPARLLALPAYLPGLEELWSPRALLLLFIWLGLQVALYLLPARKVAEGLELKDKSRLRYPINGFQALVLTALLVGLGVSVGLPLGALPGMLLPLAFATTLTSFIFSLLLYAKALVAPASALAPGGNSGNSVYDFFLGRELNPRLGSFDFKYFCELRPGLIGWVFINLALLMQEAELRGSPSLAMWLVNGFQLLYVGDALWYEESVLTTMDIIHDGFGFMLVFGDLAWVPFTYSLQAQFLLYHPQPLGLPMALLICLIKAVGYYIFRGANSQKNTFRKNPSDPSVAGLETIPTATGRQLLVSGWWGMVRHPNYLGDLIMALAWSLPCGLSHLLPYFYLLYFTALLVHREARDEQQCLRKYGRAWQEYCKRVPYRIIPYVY
In words: Inhibition of sterol 14-reductase in rat liver microsomes. The test is classed as biochemical. The note with it: microsomes; read-out: Enzyme Activity (relative in vitro activity for sterol 14-reductase, IC50 class).
Take `CCc1c2[n+](cc3c(OCc4ccc(C)c([N+](=O)[O-])c4)c(OC)ccc13)CCc1cc3c(cc1-2)OCO3` [Compound No. 49, 5,6-dihydro-2,3-methylenedioxybenzo[a]-13-ethyl-10-methoxy-9-(4-methyl-3-nitro)benzyloxybenzo[g]quinolizinium iodide]: the IC50 lay in the range of 10 to 100 µM.

With `CCc1c2[n+](cc3c(OCc4ccccc4C(F)(F)F)c(OC)ccc13)CCc1cc(OC)c(OC)cc1-2` [Compound No. 33, 5,6-dihydro-2,3-dimethoxybenzo[a]-13-ethyl-10-methoxy-9-(2-trifluoromethyl)benzyloxybenzo[g]quinolizinium chloride], the IC50 is more than 100 µM.

Still in this test, the particulars now being: read-out: Enzyme Activity (relative in vitro activity for sterol 14-reductase, IC50 class).
For `CCc1c2[n+](cc3c(OCc4ccc(C)c(C)c4)c(OC)ccc13)CCc1cc(OC)c(OC)cc1-2` [compound 27, 5,6-dihydro-2,3-dimethoxybenzo[a]-9-(3,4-dimethyl)benzyloxy-13-ethyl-10-methoxybenzo[g]quinolizinium chloride], the IC50 is more than 100 µM.

On to `CCc1c2[n+](cc3c(OCc4ccc(F)cc4Cl)c(OC)ccc13)CCc1cc(OC)c(OC)cc1-2` [Compound No. 10, 5,6-dihydro-2,3-dimethoxybenzo[a]-9-(2-chloro-4-fluro)benzyloxy-13-ethyl-10-methoxybenzo[g]quinolizinium chloride], for which the IC50 is 10 to 100 µM.

For the compound `CCc1c2[n+](cc3c(OCc4c(F)c(F)c(C(F)(F)F)c(F)c4F)c(OC)ccc13)CCc1cc(OC)c(OC)cc1-2` [Compound No. 13, 5,6-dihydro-2,3-dimethoxybenzo[a]-13-ethyl-10-methoxy-9-(2,3,5,6-tetrafluoro-4-trifluoromethyl)benzyloxy-benzo[g]quinolizinium chloride], the IC50 was less than 1 µM.

In the case of `CCc1c2[n+](cc3c(OCc4ccc(Cl)nc4)c(OC)ccc13)CCc1cc3c(cc1-2)OCO3` [Compound No. 54, 5,6-dihydro-2,3-methylenedioxybenzo[a]-9-(6-chloropyridinyl-3-yl)methoxy-13-ethyl-10-methoxybenzo[g]quinolizinium iodide], the IC50 lay within 10 to 100 µM.

In the case of `C=CCOc1c(OC)ccc2c(CC)c3[n+](cc12)CCc1cc(OC)c(OC)cc1-3` [Compound No. 26, 5,6-dihydro-2,3-dimethoxybenzo[a]-13-ethyl-10-methoxy-9-allyloxybenzo[g]quinolizinium chloride], the half-inhibitory concentration (IC50) was more than 100 µM.

Take `CCCOc1cc2c(cc1OCCC)-c1c(CC)c3ccc(OCCC)c(OCc4c(F)c(F)c(F)c(F)c4F)c3c[n+]1CC2` [Compound No. 67, 5,6-dihydro-2,3-dipropoxybenzo[a]-13-ethyl-9-(2,3,4,5,6-pentafluoro)benzyloxy-10-propoxybenzo[g]quinolizinium chloride]: the half-maximal inhibitory concentration (IC50) is 10 to 100 µM.

Take `CCc1c2[n+](cc3c(OCc4cc(OC)c(OC)cc4[N+](=O)[O-])c(OC)ccc13)CCc1cc3c(cc1-2)OCO3` [Compound No. 48, 5,6-dihydro-2,3-methylenedioxybenzo[a]-9-(4,5-dimethoxy-2-nitro)benzyloxy-13-ethyl-10-methoxybenzo[g]-quinolizinium iodide]: the IC50 was less than 1 µM.

Consider `CCOc1cc2c(cc1OCC)-c1c(CC)c3ccc(OCC)c(OCc4c(F)c(F)c(C(F)(F)F)c(F)c4F)c3c[n+]1CC2` [Compound No. 64, 5,6-dihydro-2,3-diethoxybenzo[a]-10-ethoxy-13-ethyl-9-(2,3,5,6-tetrafluoro-4-trifluoromethyl)-benzyloxy benzo[g]quinolizinium chloride], for which the IC50 lay in the range of 10 to 100 µM.

As to `CCc1c2[n+](cc3c(OCc4cccc([N+](=O)[O-])c4C)c(OC)ccc13)CCc1cc(OC)c(OC)cc1-2` [Compound No. 24, 5,6-dihydro-2,3-dimethoxybenzo[a]-13-ethyl-10-methoxy-9-(2-methyl-3-nitro)benzyloxybenzo[g]quinolizinium chloride], the IC50 is more than 100 µM.

Turning to `CCCCCCCCCCCCOc1c(OC)ccc2c(CC)c3[n+](cc12)CCc1cc(OC)c(OC)cc1-3` [Compound No. 1, 5,6-dihydro-2,3-dimethoxybenzo[a]-9-dodecoxy-13-ethyl-10-methoxybenzo[g]quinolizinium chloride], the IC50 is less than 1 µM.

On to `CCc1c2[n+](cc3c(OCc4ccc5ccccc5n4)c(OC)ccc13)CCc1cc(OC)c(OC)cc1-2` [Compound No. 36, 5,6-dihydro-2,3-dimethoxybenzo[a]-13-ethyl-10-methoxy-9-(quinolin-2-yl)methoxybenzo[g]quinolizinium chloride], for which the half-maximal inhibitory concentration (IC50) was in the range of 10 to 100 µM.

Regarding `CCc1c2[n+](cc3c(OCn4nnc5ccccc54)c(OC)ccc13)CCc1cc(OC)c(OC)cc1-2` [Compound No. 29, 5,6-dihydro-2,3-dimethoxybenzo[a]-9-(1H-benzo-triazol-1-yl)methoxy-13-ethyl-10-methoxybenzo[g]-quinolizinium chloride], the IC50 fell in the range of 10 to 100 µM.

On to `CCc1c2[n+](cc3c(OCc4ccc(Br)cc4)c(OC)ccc13)CCc1cc(OC)c(OC)cc1-2` [Compound No. 19, 5,6-dihydro-2,3-dimethoxybenzo[a]-9-(4-bromo)benzyloxy-13-ethyl-10-methoxybenzo[g]quinolizinium chloride], for which the IC50 is 10 to 100 µM.

On to `CCc1c2[n+](cc3c(OCc4ccc(C(C)(C)C)cc4)c(OC)ccc13)CCc1cc3c(cc1-2)OCO3` [Compound No. 46, 5,6-dihydro-2,3-methylenedioxybenzo[a]-9-[(4-tert-butyl)benzyloxy]-13-ethyl-10-methoxybenzo[g]quinolizinium iodide], for which the IC50 was less than 1 µM.

For the compound `CCc1c2[n+](cc3c(OCc4cccc(C)c4)c(OC)ccc13)CCc1cc(OC)c(OC)cc1-2` [Compound No. 32, 5,6-dihydro-2,3-dimethoxybenzo[a]-13-ethyl-10-methoxy-9-(3-methyl)benzyloxybenzo[g]quinolizinium chloride], the IC50 was more than 100 µM.

On to `CCc1c2[n+](cc3c(OCc4ccc(C(F)(F)F)cc4)c(OC)ccc13)CCc1cc3c(cc1-2)OCO3` [Compound No. 50, 5,6-dihydro-2,3-methylenedioxybenzo[a]-13-ethyl-10-methoxy-9-(4-trifluoromethyl)benzyloxybenzo[g]quinolizinium iodide], for which the IC50 was in the range of 10 to 100 µM.

Turning to `CCc1c2[n+](cc3c(OCc4ccccc4C(F)(F)F)c(OC)ccc13)CCc1cc(OC)c(OC)cc1-2` [Compound No. 20, 5,6-dihydro-2,3-dimethoxybenzo[a]-13-ethyl-10-methoxy-9-(2-trifluoromethyl)benzyloxybenzo[g]quinolizinium chloride], the IC50 lay in the range of 10 to 100 µM.

With `CCOc1cc2c(cc1OCC)-c1c(CC)c3ccc(OCC)c(OCc4ccc(C(F)(F)F)cc4)c3c[n+]1CC2` [Compound No. 62, 5,6-dihydro-2,3-diethoxybenzo[a]-10-ethoxy-13-ethyl-9-(4-trifluoromethyl)benzyloxybenzo[g]quinolizinium chloride], the IC50 was 10 to 100 µM.

In the case of `CCc1c2[n+](cc3c(OCc4ccc(C)cc4C)c(OC)ccc13)CCc1cc(OC)c(OC)cc1-2` [Compound No. 28, 5,6-dihydro-2,3-dimethoxybenzo[a]-9-(2,4-dimethyl)benzyloxy-13-ethyl-10-methoxybenzo[g]quinolizinium chloride], the IC50 is more than 100 µM.
